Laboratory results from patent US20180051284A1, “INHIBITORS OF MIR-17-92 CLUSTER FOR ANTI-TUMOR ACTIVITY IN MULTIPLE MYELOMA AND OTHER MALIGNANCIES” (priority 2014, published 2018).
l = locked nucleic acid (LNA); d = 2'-deoxy (DNA)

Legend:
[1] = system: panel of MM cell lines; assay: CCK-8 cell growth analysis of a panel of MM cell lines after transfection; type: cell-based, Human; details: transfection 50-25-12,5 nM; up to 96 hours
Protocol: (§1) 3×10^5 cells were transfected using Neon Transfection System (Invitrogen, Calif.,U.S.), (2 pulses at 1150, 30ms). The transfection efficiency evaluated by flow-cytometric analysis relative to a FAM dye—labeled anti-miR—negative control reached 85% to 90%.
(§2) Cells were seeded in 100 μL (suspension cell lines) or 50 μL (adherent cell lines) of culture medium at a density ranging from 0,5 to 2,5×10^3 cells per well. Survival was evaluated by both Cell Counting Kit-8 colorimetric assay (CCK-8, Dojindo Molecular Technologies, Japan) and CellTiter-Glo Luminescent Cell Viability Assay (Promega Madison, Wis., USA). Assays were performed according to the manufacturer's instructions. The optical density (OD) was evaluated at wave length of 450 nm. Both OD and luminescence were recorded with the GloMax-multi detection system (Promega, Madison, Wis., USA).

[2] = system: RPMI-8226, KMS-12-BM and NCI-H929 cells; assay: Cell viability by flow cytometry of 7-AAD stained cells, gapmer versus single miRNA inhibitors; type: cell-based, Human; details: transfection with 25 nM
Protocol: Commercial miRNA inhibitors for miR-17a, miR-18a, miR-19a, miR-19b, miR-20a and miR-92a were purchased from Ambion (Applied Biosystems, Calif., U.S.).
as §1
7-aminoactinomycin was used to evaluate cell viability. The staining was performed according to manufacturer's instructions.
To this aim, we transfected three different MM cell lines with 25 nM of either gapmer_06 or miRNA inhibitors from Ambion or RNase free water as control.

[3] = system: miR-17-92 primary transcripts and mature miRNA family members; assay: q-RT-PCR after transfectant reagents-free (gymnotic) exposure; type: cell-based, Human; details: six days gymnotic exposure, 1 and 2,5 μM; two MM cell lines (NCI-H929); vs saline vehicle
Protocol: (§3) Cells were seeded at low plating density in order to reach confluence on the final day of the experiments (day 6). Cell number at plating ranged from 0.5 to 2.5×10^3 in 96-well plates, from 2.5 to 10×10^3 in 12-well plates and from 1 to 3×10^4 in 6-well plates.
The LNA/DNA Gapmers were used at concentrations ranging from 0.1 to 20 μM.
Reverse transcription (RT) of both primary and mature miRNAs was performed using TaqMan® MicroRNA Assays, following a procedure for multiplexing the RT step (Life Technologies, Publication Part Number 4465407). Briefly, 500 ng of total RNA, prepared with the TRIzol® Reagent (Invitrogen), underwent reverse transcription by the Taq-Man® MicroRNA RT Kit. In this reaction, the RT primer pool was composed by the individual RT primers for each microRNA belonging to the miR-17-92 cluster and two RT primers to allow the reverse transcription of the miR-17-92 primary miRNA. Real-time PCR was performed using TaqMan® MicroRNA Assays together with the TaqMan® Universal PCR Master Mix on an ViiA7 System (Life Technologies). Both primary and mature microRNAs expressions were relatively quantified using the 2-ΔΔCt method (Applied Biosystems User Bulletin No. 2), and expressed as the relative quantity of target miRNA normalized to the RNU44 (assay ID 001094) housekeeping gene. […] Relative expression was calculated using the comparative cross threshold (Ct) method.

[4] = system: NCI-H929 MM xenografts; assay: In vivo anti-MM activity in NCI-H929 xenografted SCID/NOD mice
Description: (§4) Male CB-17 severe combined immunodeficient (SCID) mice (6- to 8-weeks old; Harlan Laboratories, Inc., Indianapolis) were housed and monitored in our Animal Research Facility. All experimental procedures and protocols had been approved by the Institutional Ethical Committee (Magna Graecia University) and conducted according to protocols approved by the National Directorate of Veterinary Services (Italy). In accordance with institutional guidelines, mice were sacrificed when tumors reached 2 cm in diameter or in the event of paralysis or major compromise, to prevent unnecessary suffering. Animal experimental procedures have been performed as in previous reports (Di Martino et al, CCR 2012; Di Martino el al. Oncotarget 2013, Di Martino et al PlosOne 2014). Briefly, mice were subcutaneously inoculated with 5×10^6 NCI-H929 cells and treatments started when palpable tumors became detectable, approximately 3 weeks following injection of MM cells. Treatments were performed intraperitoneally with different schedules in order to reach the Maximun Tolerated Dose (MTD) and a dose-response curve. Mice were also inoculated with 5×10^6 luciferase gene-marked U266, AMO-1, AMO-1/abzb, treatments were performed intraperitoneally (i.p.), and tumor volume were measured by IVIS Lumina II.
The tumor sizes were assessed by Caliper measurement. […]

[5] = system: AMO1/abzb xenografts; assay: In vivo tumor growth of Bortezomib-refractory AMO1/abzb xenografts (IVIS); parameters: species or system mice; details: I.P. 2 mg/kg at day 1-4-8-15-22; Bortezomib-refractory model
Description: as §4, with “Briefly, mice were subcutaneously inoculated with 5×10^6 NCI-H929 cells and treatments started when palpable tumors became detectable, approximately 3 weeks following injection of MM cells. Treatments were performed intraperitoneally with different schedules in order to reach the Maximun Tolerated Dose (MTD) and a dose-response curve.” left out
In vivo anti-MM activity of LNA gapmer_06 was next evaluated in NOD/SCID mice bearing subcutaneous AMO1 xenografts. […] Tumors volume were measured using IVIS LUMINA II Imaging We next evaluate the in vivo activity in Bortezomib-refractory model of human MM. […] Tumors volume were measured using IVIS LUMINA II Imaging System.

[6] = system: Capan1, MCF7, MDA231, LXF-289, A-549, NCI-H82, 5637, BCMW.1 and MPM-209 cells; assay: CCK-8 proliferation of non-myeloma cancer cell lines after gymnotic exposure; type: cell-based, Human; details: 6 days gymnotic exposure, 0-2,5-5-10 μM
Protocol: as §3, §2
Specifically, we gymnotically exposed for 6 days to 0-2,5-5-10 μM of gapmer_06, the following cell lines: Capan1 pancreatic cancer cells, MCF7 and MDA231 breast cancer cells, LXF-289, A-549 and NCI-H82 lung cancer cells, 5637 bladder cancer cells, BCMW.1 Waldenstrom Macroglobulinemia cells and MPM-209 mesothelioma cells.

gapmer_06: LNA/DNA gapmer, SEQ ID 4 (14 mer): +T*+A*+C*T*T*G*C*T*T*G*G*+C*+T*+T; + LNA, * phosphorothioate (antisense TACTTGCTTGGCTT; sugars from the 5' end l3 d8 l3, all phosphorothioate, methylation of C not given here)
anti-proliferative activity (CCK-8 assay) [1]: exerted anti-proliferative activity up to 96 hours after transfection in all myeloma cell lines tested | biological effect on cell viability (flow cytometry, 7-AAD) compared with single miRNA inhibitors [2]: strongest biological effects | downregulation of primary transcript and mature single miRNAs (q-RT-PCR) [3]: downregulation of primary transcript as well as mature single miRNAs, in a dose dependent manner | survival (Kaplan-Meier) ([4]; intraperitoneal treatment, as compared to saline): significant prolongation of survival | tumor growth (caliper tumor volume) ([4]; intraperitoneally, 75-50-25 μg once weekly or 25-12.5 μg twice weekly, vs saline): significant (P<0.05) inhibition of tumor growth in a dose dependent-manner | tumor growth (IVIS tumor volume) [5]: significant tumor-growth inhibition | proliferation (CCK-8 cell growth analysis) [6]: impair proliferation of all cell lines
